Assay results: patent publication US5066658A, “Substituted hydroxyureas” (Ortho Pharmaceutical Corporation, priority 1990, dated 1991)

Experiments:
[1] = test system: Arachidonate-Induced Bronchospasm (cyclooxygenase); experiment: Pulmonary Mechanics Assay: arachidonate-induced bronchospasm without indomethacin (indicative of cyclooxygenase inhibition); assay type: in vivo, male Hartley guinea pigs; conditions: Cavia porcellus, guinea pig
Summary of the method: (§1)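 Urethane-anaesthetised (2 g/kg i.p.), succinylcholine-paralysed, ventilated male Hartley guinea pigs; compound given by various routes between i.v. arachidonic acid challenges (0.5-1.0 mg/kg; then 5-10 mg/kg after indomethacin 10 mg/kg i.v.). Cdyn and RL changes expressed as percent inhibition of control.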

[2] = test system: Arachidonate-Induced Ear Edema; experiment: Arachidonic Acid-Induced Ear Edema Assay; assay type: in vivo; conditions: topical, mouse ear; for inhibition in vivo at 0.4 mg: 400 μg topically
Experimental: The topical anti-inflammatory activity of a compound was determined by its ability to inhibit an experimentally-induced inflammation in the mouse ear. Basically, four milligrams of arachidonic acid in acetone were applied to the dorsal surface of one ear with a microliter pipette. The mice were sacrificed at various times after application of arachidonic acid (one-half to six hours). A section of each ear was removed with a 7 mm round punch and weighed on an electronic or analytical balance. The difference in weight between treated and untreated ears was determined. Compounds to be evaluated for anti-inflammatory activity can be incorporated directly into the irritant mixture or at various times prior to or after application of arachidonic acid.
The degree of anti-inflammatory activity is shown in Table I, and is expressed in terms of the percent inhibition of ear weight increase.

5-lipoxygenase = biological target: T1, 5-lipoxygenase (Rattus norvegicus, UniProt P12527); experiment: Inhibition of 5-lipoxygenase in cell-free homogenate of rat basophilic leukemia (RBL-1) cells; assay type: biochemical; conditions: RBL-1 cell-free homogenate; for inhibition at 3 µM: read-out: Inhibition of 5-Lipoxygenase, % Inh. @ 3 μM
T1 construct: The cell-free homogenate was prepared by sonication of the cells followed by centrifugation at 40,000 xg; endogenous in cells; host or cells: RBL-1 (rat basophilic leukemia) cells, 40,000 xg supernatant of the sonicate
T1 sequence (P12527 1-673): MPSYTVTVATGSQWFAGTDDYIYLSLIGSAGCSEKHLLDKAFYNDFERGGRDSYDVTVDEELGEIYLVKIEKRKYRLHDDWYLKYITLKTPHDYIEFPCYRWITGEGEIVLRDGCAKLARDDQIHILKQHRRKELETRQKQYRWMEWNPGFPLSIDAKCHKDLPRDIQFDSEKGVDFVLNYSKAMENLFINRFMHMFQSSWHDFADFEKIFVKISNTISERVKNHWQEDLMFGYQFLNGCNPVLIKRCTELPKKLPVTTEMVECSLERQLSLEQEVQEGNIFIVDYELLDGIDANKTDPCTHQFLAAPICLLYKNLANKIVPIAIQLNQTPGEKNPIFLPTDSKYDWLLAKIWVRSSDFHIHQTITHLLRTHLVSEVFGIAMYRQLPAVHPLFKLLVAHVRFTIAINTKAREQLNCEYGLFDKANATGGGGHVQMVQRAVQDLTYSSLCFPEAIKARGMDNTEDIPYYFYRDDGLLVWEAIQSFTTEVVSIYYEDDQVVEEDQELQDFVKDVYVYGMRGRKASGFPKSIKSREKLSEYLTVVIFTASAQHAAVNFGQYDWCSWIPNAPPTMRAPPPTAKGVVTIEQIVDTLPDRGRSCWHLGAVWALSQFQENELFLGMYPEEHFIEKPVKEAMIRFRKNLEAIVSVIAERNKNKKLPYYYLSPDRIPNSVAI
Summary of the method: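 40,000 xg supernatant of sonicated RBL-1 cell homogenate incubated with ^14C-arachidonic acid and CaCl2, with drug or vehicle. Products extracted after acidification, separated by TLC and quantified by scintillation counting; IC50 or percent inhibition at 3 μM reported.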

[3] = test system: Arachidonate-Induced Bronchospasm (lipoxygenase); experiment: Pulmonary Mechanics Assay: arachidonate-induced bronchospasm with indomethacin (SRS-A response, indicative of lipoxygenase inhibition); assay type: in vivo, male Hartley guinea pigs; conditions: Cavia porcellus, guinea pig
Summary of the method: as §1

[4] = read-out: Inhibition of Arachidonate-Induced Ear Edema, % Inh. (μg topically)
[5] = IV dosing, read-out: Inhibition of Arachidonate-Induced Bronchospasm (IV Dosing), % Inh. without Indomethacin
[6] = IV dosing, read-out: Inhibition of Arachidonate-Induced Bronchospasm (IV Dosing), % Inh. with Indomethacin

| SMILES | inhibition at 3 µM (5-lipoxygenase) | IC50 (5-lipoxygenase) | Inhibition of Arachidonate-Induced Ear Edema, ED50 [2] | inhibition in vivo at 0.4 mg [2, 4] | inhibition in vivo at 15 mg/kg [1, 5] | inhibition in vivo at 15 mg/kg [3, 6] | further results |
| --- | --- | --- | --- | --- | --- | --- | --- |
| CCCCCCCCCCNC(=O)N(O)CCCC(=O)OCC [Example 19, N-Decyl-N'-[3-(ethoxycarbonyl)propyl]-N'-hydroxyurea] | 94% |  | 183 µg | 60% |  |  | inhibition in vivo at 50 mg/kg ([1]; ID dosing, 50 mg/kg, read-out: Inhibition of Arachidonate-Induced Bronchospasm (ID Dosing), % Inh. without Indomethacin): -89%; inhibition in vivo at 50 mg/kg ([3]; ID dosing, 50 mg/kg, read-out: Inhibition of Arachidonate-Induced Bronchospasm (ID Dosing), % Inh. with Indomethacin): 0% |
| CCCCCN1CCN(O)C1=O [Example 23, 1-pentyl-3-hydroxyimidazolidin-2-one] |  | > 10 µM |  |  | 97% | 52% | inhibition in vivo at 0.2 mg ([2]; 200 μg topically, read-out: Inhibition of Arachidonate-Induced Ear Edema, % Inh. (μg topically)): 29% |
| CCCCCCCCCCN1CCN(O)C1=O [Example 25, 1-Decyl-3-hydroxyimidazolidin-2-one] |  | 0.74 µM | 90 µg | 81% |  |  | inhibition in vivo at 20 mg/kg ([1]; IV dosing, 20 mg/kg, read-out: Inhibition of Arachidonate-Induced Bronchospasm (IV Dosing), % Inh. without Indomethacin): 85%; inhibition in vivo at 20 mg/kg ([3]; IV dosing, 20 mg/kg, read-out: Inhibition of Arachidonate-Induced Bronchospasm (IV Dosing), % Inh. with Indomethacin): 62% |

The next lines start with results.

| inhibition at 3 µM (5-lipoxygenase) | IC50 (5-lipoxygenase) | SMILES | Inhibition of Arachidonate-Induced Ear Edema, ED50 [2] | inhibition in vivo at 0.4 mg [2, 4] | inhibition in vivo at 15 mg/kg [1, 5] | inhibition in vivo at 15 mg/kg [3, 6] | further results |
| --- | --- | --- | --- | --- | --- | --- | --- |
|  | 4.3 µM | COc1ccc(CCNC(=O)N(C)O)cc1OC [Example 40, N-[2-(3,4-Dimethoxyphenyl)ethyl]N'-hydroxy-N'-methylurea] |  | 66% | 86% | 89% | inhibition in vivo at 25 mg/kg ([1]; ID dosing, 25 mg/kg, read-out: Inhibition of Arachidonate-Induced Bronchospasm (ID Dosing), % Inh. without Indomethacin): 69%; inhibition in vivo at 25 mg/kg ([3]; ID dosing, 25 mg/kg, read-out: Inhibition of Arachidonate-Induced Bronchospasm (ID Dosing), % Inh. with Indomethacin): 89% |
| 24% |  | COc1cc2c(cc1OC)CN(C(=O)N(C)O)CC2 [Example 51, 6,7-Dimethoxy-N-hydroxy-N-methyl-1,2,3,4-tetrahydroisoquinoline-2-carboxamide] |  |  | < 20% | 60% | inhibition in vivo at 0.1 mg ([2]; 100 μg topically, read-out: Inhibition of Arachidonate-Induced Ear Edema, % Inh. (μg topically)): 28% |
